Data: patent publication US10413545B2, “Imidazolin-5-one derivative useful as FASN inhibitors for the treatment of cancer” (Janssen Pharmaceutica NV, priority 2013, dated 2019)
Where two headings read alike, the source gives them in different places.

What was measured:
[1] = biological target: FASN Keto-reductase Domain (hFASN enzyme, full length) (Homo sapiens (Human), UniProt P49327); assay: Fatty Acid Synthase Keto-Reductase Domain (FASN KR) Inhibition; assay type: biochemical; conditions: NADPH oxidation at 340 nm, ethyl acetoacetate substrate, mean if tested more than once; for IC50: read-out: FASN Keto-reductase Domain pIC50 (converted)
Chain of FASN Keto-reductase Domain (hFASN enzyme, full length) (P49327 whole entry, the tested form may be a part): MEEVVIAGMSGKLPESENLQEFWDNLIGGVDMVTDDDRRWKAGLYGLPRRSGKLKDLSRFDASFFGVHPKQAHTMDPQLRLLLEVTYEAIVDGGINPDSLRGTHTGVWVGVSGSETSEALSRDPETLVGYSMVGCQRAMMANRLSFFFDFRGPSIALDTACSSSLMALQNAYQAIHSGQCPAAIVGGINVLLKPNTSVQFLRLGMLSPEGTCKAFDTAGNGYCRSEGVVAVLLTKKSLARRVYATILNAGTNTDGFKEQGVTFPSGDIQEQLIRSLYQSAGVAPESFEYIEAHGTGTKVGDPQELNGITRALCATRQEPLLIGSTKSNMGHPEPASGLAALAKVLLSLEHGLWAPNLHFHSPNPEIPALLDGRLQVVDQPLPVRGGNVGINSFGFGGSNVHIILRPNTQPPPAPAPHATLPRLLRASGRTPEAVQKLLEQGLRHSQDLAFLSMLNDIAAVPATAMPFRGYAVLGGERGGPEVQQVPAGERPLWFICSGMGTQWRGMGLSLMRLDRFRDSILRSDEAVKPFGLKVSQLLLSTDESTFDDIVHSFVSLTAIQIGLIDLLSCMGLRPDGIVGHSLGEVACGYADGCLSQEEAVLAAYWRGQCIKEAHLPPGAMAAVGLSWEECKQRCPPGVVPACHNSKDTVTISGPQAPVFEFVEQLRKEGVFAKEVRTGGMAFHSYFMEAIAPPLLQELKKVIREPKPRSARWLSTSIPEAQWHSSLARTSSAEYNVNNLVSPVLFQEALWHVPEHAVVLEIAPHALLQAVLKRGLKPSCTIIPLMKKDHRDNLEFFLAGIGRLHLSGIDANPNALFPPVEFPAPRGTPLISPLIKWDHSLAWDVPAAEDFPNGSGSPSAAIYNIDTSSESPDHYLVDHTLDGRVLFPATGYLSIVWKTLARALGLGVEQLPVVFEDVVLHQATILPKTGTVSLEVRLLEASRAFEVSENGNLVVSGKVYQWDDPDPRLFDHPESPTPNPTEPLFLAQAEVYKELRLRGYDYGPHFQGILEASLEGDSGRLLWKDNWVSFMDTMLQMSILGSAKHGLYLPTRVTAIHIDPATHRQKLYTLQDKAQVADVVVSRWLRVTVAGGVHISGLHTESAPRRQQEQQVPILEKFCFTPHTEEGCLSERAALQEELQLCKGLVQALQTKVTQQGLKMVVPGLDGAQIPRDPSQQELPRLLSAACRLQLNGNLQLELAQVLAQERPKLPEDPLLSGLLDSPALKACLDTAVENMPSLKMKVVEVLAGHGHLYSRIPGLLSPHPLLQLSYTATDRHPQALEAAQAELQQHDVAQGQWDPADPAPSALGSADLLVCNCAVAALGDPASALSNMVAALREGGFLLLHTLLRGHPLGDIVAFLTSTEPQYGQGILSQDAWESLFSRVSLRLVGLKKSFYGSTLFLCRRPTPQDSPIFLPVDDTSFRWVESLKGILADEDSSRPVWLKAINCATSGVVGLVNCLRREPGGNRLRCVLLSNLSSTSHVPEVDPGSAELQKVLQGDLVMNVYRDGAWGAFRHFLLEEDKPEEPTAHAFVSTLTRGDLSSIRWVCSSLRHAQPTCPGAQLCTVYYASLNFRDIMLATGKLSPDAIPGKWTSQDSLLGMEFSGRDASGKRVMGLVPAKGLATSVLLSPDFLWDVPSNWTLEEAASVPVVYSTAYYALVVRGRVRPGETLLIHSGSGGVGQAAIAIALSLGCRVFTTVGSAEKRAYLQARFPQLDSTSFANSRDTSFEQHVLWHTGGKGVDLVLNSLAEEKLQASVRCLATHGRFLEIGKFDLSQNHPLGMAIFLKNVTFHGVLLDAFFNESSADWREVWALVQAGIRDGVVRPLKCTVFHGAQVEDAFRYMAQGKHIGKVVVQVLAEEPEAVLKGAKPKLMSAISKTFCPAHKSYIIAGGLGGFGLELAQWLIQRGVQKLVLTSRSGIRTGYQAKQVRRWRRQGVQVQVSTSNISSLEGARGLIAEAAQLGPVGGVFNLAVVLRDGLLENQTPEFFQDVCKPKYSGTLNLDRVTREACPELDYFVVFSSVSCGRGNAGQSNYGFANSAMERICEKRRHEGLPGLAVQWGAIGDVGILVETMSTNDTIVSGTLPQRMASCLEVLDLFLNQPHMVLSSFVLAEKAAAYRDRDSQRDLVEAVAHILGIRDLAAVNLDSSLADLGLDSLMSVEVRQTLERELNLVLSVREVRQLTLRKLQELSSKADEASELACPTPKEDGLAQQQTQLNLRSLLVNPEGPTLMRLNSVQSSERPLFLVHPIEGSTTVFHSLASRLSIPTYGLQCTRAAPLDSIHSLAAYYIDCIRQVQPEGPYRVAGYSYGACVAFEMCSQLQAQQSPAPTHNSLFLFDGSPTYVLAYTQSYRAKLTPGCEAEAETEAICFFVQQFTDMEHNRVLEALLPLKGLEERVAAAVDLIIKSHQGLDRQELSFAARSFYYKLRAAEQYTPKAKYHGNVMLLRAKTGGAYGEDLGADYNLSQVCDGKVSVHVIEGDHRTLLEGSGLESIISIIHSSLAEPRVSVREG
Protocol: After 20 minutes incubation at room temperature the plate was measured again (T2).
The decrease in absorbance was calculated as (Absorbance before incubation T1)−(Absorbance following incubation T2).
(§1) Raw data generated by the instrument were normalized to % Controlmin values, which were calculated as: % Controlmin=100*(x−mLC)/(mHC−mLC)
where mLC and mHC were the means of the low control wells and high control wells on the plate, after manual exclusion of outliers. A plot of Controlmin versus test compound concentration was fitted to a 4-parameter logistic curve using a non-linear least squares regression method.

[2] = system: LNCaP_Vancouver prostate cells; assay: In Vitro LNCaP Vancouver Prostate Cell Proliferation Assay in Lipid Reduced Medium; assay type: cell-based; conditions: 10% lipid reduced serum, 96 h, ATP-glow luminescence; for IC50: Prostate cell, read-out: pIC50 LNCaP_Vancouver prostate cell (converted)
[3] = system: A2780 ovarian cells; assay: A2780 Ovarian Cell Proliferation Assay in Lipid Reduced Medium, with and without Palmitate (MTT); assay type: cell-based; conditions: 10% lipid-reduced serum, 96 h; for IC50: Homo sapiens
[4] = biological target: Human FASN (hFASN enzyme, full length) (Homo sapiens (Human), UniProt P49327); assay: Fatty Acid Synthase (FASN) Inhibition Scintillation Proximity Assay; assay type: biochemical; conditions: hFASN SPA, 3H-acetyl-CoA/malonyl-CoA; mean if tested more than once; ~ = standard error of pIC50 >0.5
Chain of Human FASN (hFASN enzyme, full length) (P49327 whole entry, the tested form may be a part): as above
Protocol: In this assay, inhibition of FASN activity is measured using ^3H-acetyl-CoA and malonyl-CoA as substrates. ^3H-Acetyl CoA is converted to ^3H-palmitate through a series of reactions by the FASN protein, which contains 7 functional domains and carries out 7 enzymatic reactions to ultimately produce ^3H-palmitate. The assay principle is based upon the fact that ^3H-acetyl-CoA is hydrophilic and the end product, ^3H-palmitate is hydrophobic.
0.9 μL test compound (at concentrations of 30 μM, 10 μM, 3 μM, 1 μM, 0.30 μM, 0.10 μM, 0.03 μM and 0.01 μM)/DMSO and 10 μL hFASN enzyme (full length, 300 ng, purified in house) or 10 μL assay buffer was added to the wells. […] The reaction was stopped by adding 20 μL Streptavidin coupled imaging beads (25 mg/ml). After incubation for 30 minutes at room temperature in the dark, the 384 well plate was centrifuged at 1500 rpm for 3 minutes and was measured after at least 24 hrs by the LEADseeker™, measuring emission using a 610±20 nm pass filter.
as §1
where mLC and mHC were the means of the low control wells and high control wells on the plate, after manual exclusion of outliers. […]

[5] = system: PC-3M-Luc-C6 prostate cells; assay: In Vitro PC-3M-Luc-C6 Prostate Cell Proliferation Assay in Lipid Reduced Medium; assay type: cell-based; conditions: 10% lipid reduced serum, 96 h, ATP-glow luminescence; for IC50: Prostate cell, read-out: pIC50 PC-3M-Luc-C6 prostate cell (converted)
[6] = 25 μM palmitate added (control), read-out: pIC50 With Palmitate (converted)
[7] = no palmitate, read-out: pIC50 Without Palmitate (converted)

Molecule | IC50 [2] [nM] | IC50 [3, 6] [nM] | IC50 [3, 7] [nM] | IC50 [5] [nM] | other results
CC1(C)N=C(c2ccc(-c3c[nH]c4ccccc34)cc2F)N(C[C@@H]2CCN(C(=O)C3CC3)C2)C1=O [Compound 63, (R)-1-((1-(cyclopropanecarbonyl)pyrrolidin-3-yl)methyl)-2-(2-fluoro-4-(1H-indol-3-yl)phenyl)-4,4-dimethyl-1H-imidazol-5(4H)-one] | 525 | – | – | – | IC50 [1]: 186 nM
CC1(C)N=C(c2ccc(-c3nc4ccccc4[nH]3)cc2)N(C[C@@H]2CCN(C(=O)C3CC3)C2)C1=O [Compound 71, (R)-2-(4-(1H-benzo[d]imidazol-2-yl)phenyl)-1-((1-(cyclopropanecarbonyl)pyrrolidin-3-yl)methyl)-4,4-dimethyl-1H-imidazol-5(4H)-one] | – | > 10000 | ~9330 | – | Human FASN pIC50 [4]: 5.23
CC1(C)N=C(c2ccc(-c3n[nH]c4ccccc34)cc2F)N(C[C@@H]2CCN(C(=O)C3CC3)C2)C1=O [Compound 57, (R)-1-((1-(cyclopropanecarbonyl)pyrrolidin-3-yl)methyl)-2-(2-fluoro-4-(1H-indazol-3-yl)phenyl)-4,4-dimethyl-1H-imidazol-5(4H)-one] | 1780 | – | – | 646 | IC50 [1]: 2750 nM
CC1(C)N=C(c2ccc(-c3ccc4cnccc4c3)cc2F)N(C[C@@H]2CCN(C(=O)C3CC3)C2)C1=O [Compound 68, (R)-1-((1-(cyclopropanecarbonyl)pyrrolidin-3-yl)methyl)-2-(2-fluoro-4-(isoquinolin-6-yl)phenyl)-4,4-dimethyl-1H-imidazol-5(4H)-one] | 204 | – | 17.4 | – | IC50 [1]: 47.9 nM
1-((1-(cyclopropanecarbonyl)azetidin-3-yl)methyl)-2-(2-fluoro-4-(1-methyl-1H-indazol-5-yl)phenyl)-4,4-dimethyl-1H-1-imidazol-5(4H)-one [Compound 69] | – | – | – | – | pIC50 With Palmitate ([3]; 25 μM palmitate added (control)): <5; pIC50 Without Palmitate ([3]; no palmitate): 7.19; FASN Keto-reductase Domain pIC50 [1]: 6.67; Human FASN pIC50 [4]: 6.96; pIC50 PC-3M-Luc-C6 prostate cell [5]: 7.04; pIC50 LNCaP_Vancouver prostate cell [2]: 6.87
CC1(C)N=C(c2ccc(-c3ccc4cc(F)ccc4c3)cc2F)N(C[C@@H]2CCN(C(=O)C3CC3)C2)C1=O [Compound 66] | 692 | – | ~427 | 589 | IC50 [1]: 52.5 nM
CC1(C)N=C(c2ccc(-c3ccc4cncnc4c3)cc2)N(C[C@@H]2CCN(C(=O)C3CC3)C2)C1=O [Compound 42, (R)-1-((1-(cyclopropanecarbonyl)pyrrolidin-3-yl)methyl)-4,4-dimethyl-2-(4-(quinazolin-7-yl)phenyl)-1H-imidazol-5(4H)-one] | 1000 | > 10000 | ~191 | 417 | –
Cn1ncc2cc(-c3ccc(C4=NC(C)(c5ccccc5)C(=O)N4C[C@@H]4CCN(C(=O)C5CC5)C4)cc3)ccc21 (mixture of isomers) [Compound 6, (4RS)-1-(((R)-1-(cyclopropanecarbonyl)pyrrolidin-3-yl)methyl)-4-methyl-2-(4-(1-methyl-1H-indazol-5-yl)phenyl)-4-phenyl-1H-imidazol-5(4H)-one] | 1820 | > 10000 | 363 | 501 | –
CC1(C)N=C(c2ccc(-c3ccc(-c4ccncc4)cc3)cc2)N(C[C@@H]2CCN(C(=O)C3CC3)C2)C1=O [Compound 15, (R)-1-((1-(cyclopropanecarbonyl)pyrrolidin-3-1)methyl)-4,4-dimethyl-2-(4′-(pyridin-4-yl)-[1,1′-biphenyl]-4-yl)-1H-imidazol-5(4H)-one] | 759 | > 10000 | 178 | 158 | –
CC1(c2ccccc2)N=C(c2ccc(-c3ccc4[nH]ccc4c3)cc2)N(C[C@@H]2CCN(C(=O)C3CC3)C2)C1=O (mixture of isomers) [Compound 7, (4RS)-2-(4-(1H-Indol-5-yl)phenyl)-1-(((R)-1-(cyclopropanecarbonyl)pyrrolidin-3-yl)methyl)-4-methyl-4-phenyl-1H-imidazol-5(4H)-one] | 234 | > 10000 | 132 | 74.1 | –
CC1(C)N=C(c2ccc(-c3ccc4cccc(F)c4c3)cc2F)N(C[C@@H]2CCN(C(=O)C3CC3)C2)C1=O [Compound 67, (R)-1-((1-(cyclopropanecarbonyl)pyrrolidin-3-yl)methyl)-2-(2-fluoro-4-(8-fluoronaphthalen-2-yl)phenyl)-4,4-dimethyl-1H-imidazol-5(4H)-one] | 407 | – | ~195 | 145 | –
CC1(C)N=C(c2ccc(-c3ccc(-c4ccncc4)cc3)cc2F)N(CC2CN(C(=O)C3CC3)C2)C1=O [Compound 22, 1-((1-(cyclopropanecarbonyl)azetidin-3-yl)methyl)-2-(3-fluoro-4′-(pyridin-4-yl)-[1,1′-biphenyl]-4-yl)-4,4-dimethyl-1H-imidazol-5(4H)-one] | 813 | > 10000 | ~269 | 224 | –
CC1(C)N=C(c2ccc(-c3ccc4cnccc4c3)cc2)N(C[C@@H]2CCN(C(=O)C3CC3)C2)C1=O [Compound 28] | 1580 | > 10000 | 58.9 | 63.1 | –
Cn1ncc2cc(-c3ccc(C4=NC(C)(C)C(=O)N4CC4CN(C(=O)C5(O)CC5)C4)c(F)c3)ccc21 [Compound 78, 2-(2-fluoro-4-(1-methyl-1H-indazol-5-yl)phenyl)-1-((1-(1-hydroxycyclopropanecarbonyl)azetidin-3-yl)methyl)-4,4-dimethyl-1H-imidazol-5(4H)-one] | 3090 | > 10000 | 537 | 447 | –
